Experiment: logP determination by retention times (calibration with alkan-2-ones)
Settings: linear gradient 10% to 95% acetonitrile
[1] = * HPLC reversed-phase C18, 40° C., mobile phase 0.1% aqueous formic acid and acetonitrile

Row | Compound | chromatographic logP [1] | other results
1 | Cc1nc(C2CC2)sc1-c1ccnc(Nc2cccc(N(C)C)c2)n1 [Example 554, N′-[4-(2-cyclopropyl-4-methyl-1,3-thiazol-5-yl)pyrimidin-2-yl]-N,N-dimethylbenzene-1,3-diamine] | 2.19 | –
2 | Cc1nc(C2CC2)sc1-c1ccnc(Nc2ccc(N(C)C)cc2)n1 [Example 555, N′-[4-(2-cyclopropyl-4-methyl-1,3-thiazol-5-yl)pyrimidin-2-yl]-N,N-dimethylbenzene-1,4-diamine] | 1.63 | –
3 | CC(=O)Nc1nc(C)c(-c2ccnc(Nc3ccccc3)n2)s1 [Example 560, N-[5-(2-anilinopyrimidin-4-yl)-4-methyl-1,3-thiazol-2-yl]acetamide] | 2.09 | –
4 | COCC(C)Nc1nc(C)c(-c2ccnc(Nc3cccc(NC(C)=O)c3)n2)s1 (stereo not shown) [Example 569, N-{3-[(4-{2-[(2-methoxy-1-methylethyl)amino]-4-methyl-1,3-thiazol-5-yl}pyrimidin-2-yl)amino]phenyl}acetamide] | 1.47 | –
5 | COCC(C)Nc1nc(C)c(-c2ccnc(Nc3cccc(NS(C)(=O)=O)c3)n2)s1 (stereo not shown) [Example 570, N-{3-[(4-{2-[(2-methoxy-1-methylethyl)amino]-4-methyl-1,3-thiazol-5-yl}pyrimidin-2-yl)amino]phenyl}methanesulphonamide] | 1.57 | –
6 | COCC(C)Nc1nc(C)c(-c2ccnc(Nc3ccc(NC(C)=O)cc3)n2)s1 (stereo not shown) [Example 578, N-{4-[(4-{2-[(2-methoxy-1-methylethyl)amino]-4-methyl-1,3-thiazol-5-yl}pyrimidin-2-yl)amino]phenyl}acetamide] | 1.43 | –
7 | CC(=O)Nc1ccc(Nc2nccc(-c3sc(NCC4CCCO4)nc3C)n2)cc1 (stereo not shown) [Example 580, N-{4-[(4-{4-methyl-2-[(tetrahydrofuran-2-ylmethyl)amino]-1,3-thiazol-5-yl}pyrimidin-2-yl)amino]phenyl}acetamide] | 1.39 | –
8 | Cc1nc(C)c(-c2ccnc(Nc3ccc4c(c3)OCO4)n2)s1 [Example 616, N-1,3-benzodioxol-5-yl-4-(2,4-dimethyl-1,3-thiazol-5-yl)pyrimidine-2-amine] | 2.44 | –
9 | Cc1nc(C2CC2)sc1-c1ccnc(Nc2ccc3c(c2)OCO3)n1 [Example 617, N-1,3-benzodioxol-5-yl-4-(2-cyclopropyl-4-methyl-1,3-thiazol-5-yl)pyrimidine-2-amine] | 2.96 | –
10 | CCc1nc(C)c(-c2ccnc(Nc3ccc4c(c3)OCO4)n2)s1 [Example 618, N-1,3-benzodioxol-5-yl-4-(2-ethyl-4-methyl-1,3-thiazol-5-yl)pyrimidine-2-amine] | 2.77 | –
11 | Cc1nc(C(C)C)sc1-c1ccnc(Nc2ccc3c(c2)OCO3)n1 [Example 619, N-1,3-benzodioxol-5-yl-4-(2-isopropyl-4-methyl-1,3-thiazol-5-yl)pyrimidine-2-amine] | 3.25 | –
12 | COCc1nc(C)c(-c2ccnc(Nc3ccc4c(c3)OCO4)n2)s1 [Example 620, N-1,3-benzodioxol-5-yl-4-[2-(methoxymethyl)-4-methyl-1,3-thiazol-5-yl]pyrimidine-2-amine] | 2.47 | –
13 | CC(=O)N(Cc1cccc(Nc2nccc(-c3sc(C4CC4)nc3C)n2)c1)C(C)=O [Example 621, N-acetyl-N-(3-{[4-(2-cyclopropyl-4-methyl-1,3-thiazol-5-yl)pyrimidin-2-yl]amino}benzyl)acetamide] | 1.87 | –
14 | CC(=O)N(Cc1cccc(N(C(C)=O)c2nccc(-c3sc(C4CC4)nc3C)n2)c1)C(C)=O [Example 622, N-acetyl-N-(3-{acetyl[4-(2-cyclopropyl-4-methyl-1,3-thiazol-5-yl)pyrimidin-2-yl]amino}benzyl)acetamide] | 2.39 | –
15 | Cc1nc(C2CC2)sc1-c1ccnc(Nc2cccc(CNC(=O)OC(C)(C)C)c2)n1 [Example 624, tert-butyl-(3-{[4-(2-cyclopropyl-4-methyl-1,3-thiazol-5-yl)pyrimidin-2-yl]amino}benzyl)carbamate] | 2.87 | –
16 | Cc1nc(C)c(-c2ccnc(Nc3ccc(CNC(=O)OC(C)(C)C)cc3)n2)s1 [Example 625, tert-butyl-(4-{[4-(2,4-dimethyl-1,3-thiazol-5-yl)pyrimidin-2-yl]amino}benzyl)carbamate] | – | chromatographic logP (** HPLC reversed-phase C18, 43° C., mobile phase 0.1% aqueous phosphoric acid and acetonitrile): 2.7
17 | CCc1nc(C)c(-c2ccnc(Nc3ccc(CNC(=O)OC(C)(C)C)cc3)n2)s1 [Example 632, tert-butyl-(4-{[4-(2-ethyl-4-methyl-1,3-thiazol-5-yl)pyrimidin-2-yl]amino}benzyl)carbamate] | 3.26 | –
18 | Cc1nc(C(C)C)sc1-c1ccnc(Nc2ccc(CNC(=O)OC(C)(C)C)cc2)n1 [Example 633, tert-butyl-(4-{[4-(2-isopropyl-4-methyl-1,3-thiazol-5-yl)pyrimidin-2-yl]amino}benzyl)carbamate] | 3.68 | –
19 | COCc1nc(C)c(-c2ccnc(Nc3cccc(CNC(=O)OC(C)(C)C)c3)n2)s1 [Example 639, tert-butyl-[3-({4-[2-(methoxymethyl)-4-methyl-1,3-thiazol-5-yl]pyrimidin-2-yl}amino)benzyl]carbamate] | 2.94 | –

Row | Compound | chromatographic logP [1] | other results
20 | COCc1nc(C)c(-c2ccnc(Nc3ccc(CNC(=O)OC(C)(C)C)cc3)n2)s1 [Example 643, tert-butyl-[4-({4-[2-(methoxymethyl)-4-methyl-1,3-thiazol-5-yl]pyrimidin-2-yl}amino)benzyl]carbamate] | 2.99 | –
21 | COC(=O)Nc1ccc(Nc2nccc(-c3sc(N)nc3C)n2)cc1 [Example 656, methyl-(4-{[4-(2-amino-4-methyl-1,3-thiazol-5-yl)pyrimidin-2-yl]amino}phenyl)carbamate] | 1.31 | –
22 | COCC(C)Nc1nc(C)c(-c2ccnc(Nc3ccc(NS(C)(=O)=O)cc3)n2)s1 (stereo not shown) [Example 657, N-{4-[(4-{2-[(2-methoxy-1-methylethyl)amino]-4-methyl-1,3-thiazol-5-yl}pyrimidin-2-yl)amino]phenyl}methanesulphonamide] | 1.53 | –
23 | CNc1nc(C)c(-c2ccnc(Nc3cccc(CNC(=O)OC(C)(C)C)c3)n2)s1 [Example 658, tert-butyl-[3-({4-[4-methyl-2-(methylamine)-1,3-thiazol-5-yl]pyrimidin-2-yl}amino)benzyl]carbamate] | – | logP [1]: 1.99*
24 | CC(=O)c1cccc(N(C(C)=O)c2nccc(-c3sc(C4CC4)nc3C)n2)c1 [Example 665, N-(3-acetylphenyl)-N-[4-(2-cyclopropyl-4-methyl-1,3-thiazol-5-yl)pyrimidin-2-yl]acetamide] | 2.43 | –
25 | COc1cc(N(C(C)=O)c2nccc(-c3sc(C(C)C)nc3C)n2)cc(OC)c1OC [Example 666, N-[4-(2-isopropyl-4-methyl-1,3-thiazol-5-yl)pyrimidin-2-yl]-N-(3,4,5-trimethoxyphenyl)acetamide] | 2.53 | –
26 | COc1cc(N(C(C)=O)c2nccc(-c3sc(C)nc3C)n2)cc(OC)c1OC [Example 667, N-[4-(2,4-dimethyl-1,3-thiazol-5-yl)pyrimidin-2-yl]-N-(3,4,5-trimethoxyphenyl)acetamide] | 1.9 | –
27 | CCc1nc(C)c(-c2ccnc(N(C(C)=O)c3ccccc3)n2)s1 [Example 668, N-[4-(2-ethyl-4-methyl-1,3-thiazol-5-yl)pyrimidin-2-yl]-N-phenylacetamide] | 2.33 | –
28 | CCc1nc(C)c(-c2ccnc(N(C(C)=O)c3cc(OC)c(OC)c(OC)c3)n2)s1 [Example 669, N-[4-(2-ethyl-4-methyl-1,3-thiazol-5-yl)pyrimidin-2-yl]-N-(3,4,5-trimethoxyphenyl)acetamide] | 2.19 | –
29 | CCc1nc(C)c(-c2ccnc(N(C(C)=O)c3cccc(C(C)=O)c3)n2)s1 [Example 671, N-(3-acetylphenyl)-N-[4-(2-ethyl-4-methyl-1,3-thiazol-5-yl)pyrimidin-2-yl]acetamide] | 2.23 | –
30 | COC(=O)Nc1ccc(Nc2nccc(-c3sc(C4CC4)nc3C)n2)cc1 [Example 672, methyl-(4-{[4-(2-cyclopropyl-4-methyl-1,3-thiazol-5-yl)pyrimidin-2-yl]amino}phenyl)carbamate] | 2.51 | –
31 | Cc1nc(C)c(-c2ccnc(Nc3ccc(N(C)C)c(Cl)c3)n2)s1 [Example 674, 2-chloro-N4-[4-(2,4-dimethyl-1,3-thiazol-5-yl)pyrimidin-2-yl]-N1,N1-dimethylbenzene-1,4-diamine] | 2 | –
32 | COCCNc1nc(C)c(-c2ccnc(Nc3ccc(F)cc3)n2)s1 [Example 677, N-(4-fluorophenyl)-4-{2-[(2-methoxyethyl)amino]-4-methyl-1,3-thiazol-5-yl}pyrimidine-2-amine] | 1.9 | –
33 | COCCNc1nc(C)c(-c2ccnc(Nc3ccccc3)n2)s1 [Example 678, 4-{2-[(2-methoxyethyl)amino]-4-methyl-1,3-thiazol-5-yl}-N-phenylpyrimidine-2-amine] | 1.82 | –
34 | COCCNc1nc(C)c(-c2ccnc(Nc3cc(OC)c(OC)c(OC)c3)n2)s1 [Example 679, 4-{2-[(2-methoxyethyl)amino]-4-methyl-1,3-thiazol-5-yl}-N-(3,4,5-trimethoxyphenyl)pyrimidine-2-amine] | 1.74 | –
35 | COCCNc1nc(C)c(-c2ccnc(Nc3cccc(Cl)c3)n2)s1 [Example 680, N-(3-chlorophenyl)-4-{2-[(2-methoxyethyl)amino]-4-methyl-1,3-thiazol-5-yl}pyrimidine-2-amine] | 2.28 | –
36 | COCCNc1nc(C)c(-c2ccnc(Nc3cccc(OC)c3)n2)s1 [Example 681, 4-{2-[(2-methoxyethyl)amino]-4-methyl-1,3-thiazol-5-yl}-N-(3-methoxyphenyl)pyrimidine-2-amine] | 1.86 | –
37 | COCCNc1nc(C)c(-c2ccnc(Nc3cccc(NC(C)=O)c3)n2)s1 [Example 682, N-{3-[(4-{2-[(2-methoxyethyl)amino]-4-methyl-1,3-thiazol-5-yl}pyrimidin-2-yl)amino]phenyl}acetamide] | 1.36 | –

— patent US20090030024A1, “THIAZOLES AS FUNGICIDES” (priority 2005, published 2009)
